Laboratory results taken from patent publication US20230255953A1, “USE OF ROLUPERIDONE IN PREVENTING RELAPSE IN SCHIZOPHRENIA PATIENTS” (Minerva Neurosciences, Inc., priority 2022, published 2023).

Assays:
[1] = test system: dopaminergic (DA) receptors; settings: background statement; cited from earlier work
serotoninergic 5-HT2A = serotoninergic 5-HT2A (Homo sapiens, UniProt P28223); settings: background statement; cited from earlier work
[2] = test system: patients with negative symptoms of schizophrenia; assay: Integrated analysis (pooled ITT): rate of relapse and time to relapse; format: in vivo, human
Protocol: (§1) “Time to relapse” in the DB period is defined as the number of days from Day 1 to the date of early trial termination due to relapse. […] Treatment differences in time to relapse in the DB period were analyzed using a Cox-regression model with treatment group and Baseline PANSS total score as covariates. For the analysis of the OL period, this analysis was repeated to analyze treatment differences in time to relapse in the study. For the OL period analysis, patients who were not observed to relapse in the study were censored on the date on which they ended the study. Kaplan-Meier plots of time to relapse in the DB period, OL period, and in the study were generated.
(§2) In some embodiments, for any of the methods disclosed herein, a relapse refers to a patient who is terminated early during treatment (or a study trial) due to worsening of psychosis or an adverse event or generalized symptom in Table 1.
The Efficacy data from Study Nos. 1 and 2 were pooled. The majority of patients in the pooled ITT population completed the DB period (502 patients overall, 66.3%), with similar rates in each treatment group (placebo: 69.8%, 32 mg Roluperidone: 65.3%, and 64 mg Roluperidone: 63.8%) (Table 12). The majority (62.7%) of those who completed the DB period entered the OL period. The most common reason for discontinuation during the DB period among patients overall was withdrawal of consent (15.6%), followed by adverse events (7.3%) and lack of efficacy (5.4%) (Table 12). […] Approximately twice as many patients in the Roluperidone groups (32 mg: 8.5%; 64 mg: 9.1%) discontinued due to adverse events compared with patients in the placebo group (4.3%). More patients in the placebo group discontinued due to lack of efficacy (6.7%) than in the Roluperidone groups (32 mg: 4.4%; 64 mg: 5.1%). The low number of patients who discontinued due to lack of efficacy or withdrawal of consent probably reflects a low level of worsening of positive symptoms.

[3] = test system: patients with negative symptoms of schizophrenia; assay: Study #2 (MIN-101C07): rate of relapse and time to relapse; format: in vivo, human; settings: for Patients who experienced relapse (%) / Patients who experienced relapse (number) / Days to relapse (Kaplan-Meier estimates), Mean / Days to relapse (Kaplan-Meier estimates), Median: ITT, MIN-101C07
Protocol: as §1, §2
(§3) Study #2 (also referred to as “MIN101C07”) was a Phase 3, randomized, DB, placebo-controlled, parallel-group 12-week study to evaluate the efficacy and safety of Roluperidone in patients ≥18 years to ≤55 years with negative symptoms of schizophrenia, followed by a 40-week OL extension. The study consisted of a pretreatment screening period of up to 28 days (including an antipsychotic medication washout period), a 12-week, DB, placebo-controlled period, and a 40-week OL period. Eligible patients (with moderate to severe negative symptoms of schizophrenia and stable positive symptoms but without severe symptoms of suspiciousness, agitation, hostility, uncooperativeness, or poor impulse control) were randomized 1:1:1 to receive Roluperidone 32 mg QD, Roluperidone 64 mg QD (GR01/B formulation, see U.S. Pat. No. 11,464,744), or placebo, orally, for 12 weeks. […] During the 40-week OL treatment extension, patients who were initially randomized to Roluperidone 32 mg or 64 mg continued treatment with the same dose, while patients who were initially randomized to placebo crossed over to Roluperidone 32 mg or 64 mg in a 1:1 ratio.

[4] = test system: patients with negative symptoms of schizophrenia; assay: Study #2 (MIN-101C07): CGI-S and CGI-I; format: in vivo, human; settings: Week 12 DB, ITT
Protocol: The CGI-S is a clinician-rated scale that is designed to rate the severity of the patient's illness at the time of assessment, including knowledge of the patient's history, psychosocial circumstances, symptoms, behavior, and the impact of the symptoms on the patient's ability to function relative to the clinician's past experience with patients who have the same diagnosis and similar improvement with treatment. Considering total clinical experience, a patient is assessed on severity of mental illness at the time of rating, where 1=normal (not at all ill); 2=borderline mentally ill; 3=mildly ill; 4=moderately ill; 5=markedly ill; 6=severely ill; or 7=extremely ill.
The CGI-S and CGI-I were assessed at the timepoints described in Table 7. The CGI-S and CGI-I were exploratory endpoints in Studies MIN-101C03 and MIN-101C07.
as §3

[5] = Roluperidone Total (N = 502), DB period
[6] = Placebo in DB to 32 mg in OL (N = 59), OL period
[7] = Roluperidone Total 32+64 mg (N = 341), DB period
[8] = Roluperidone Total 32+64 mg, DB period
[9] = Roluperidone throughout, Total (N = 211), OL period

Sequence of serotoninergic 5-HT2A (P28223 whole entry): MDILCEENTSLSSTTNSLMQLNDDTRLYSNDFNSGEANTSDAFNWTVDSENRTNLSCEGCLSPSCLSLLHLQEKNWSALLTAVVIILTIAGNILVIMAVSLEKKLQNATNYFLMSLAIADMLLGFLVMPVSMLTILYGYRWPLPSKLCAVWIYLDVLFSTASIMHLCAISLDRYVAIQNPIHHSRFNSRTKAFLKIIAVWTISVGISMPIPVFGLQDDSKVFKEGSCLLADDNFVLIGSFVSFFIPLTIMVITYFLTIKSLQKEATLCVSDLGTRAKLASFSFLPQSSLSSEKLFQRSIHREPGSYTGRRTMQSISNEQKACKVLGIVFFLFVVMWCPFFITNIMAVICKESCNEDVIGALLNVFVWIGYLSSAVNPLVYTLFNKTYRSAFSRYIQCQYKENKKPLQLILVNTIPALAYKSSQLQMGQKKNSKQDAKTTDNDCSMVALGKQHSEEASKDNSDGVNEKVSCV

## 1H-Isoindol-1-one,2-[ [1-[2-(4-fluorophenyl)-2-oxoethyl]-4-piperidinyl]methyl]-2,3-dihydro-, hydrochloride, hydrate (1:1:2) [Roluperidone]
[1]
  Affinity: very low or no affinity
Serotoninergic 5-HT2A
  Antagonistic activity: antagonistic activities
[2]; 32 mg (N = 248), DB period
  Patients who experienced relapse (%): 8%
  Patients who experienced relapse (number): 19
[2]; 32 mg group, OL period
  Mean number of days to relapse: 234.8 days
[2]; 32 mg throughout, OL period
  Patients who experienced relapse (%): 7%
  Patients who experienced relapse (number): 10
[2]; 32 mg, DB period
  Days to relapse (Kaplan-Meier estimates), Mean: 128.3 days
  Days to relapse (Kaplan-Meier estimates), Median: 137.0 days
[2]; 64 mg (N = 254), DB period
  Patients who experienced relapse (%): 6%
  Patients who experienced relapse (number): 16
[2]; 64 mg group, OL period
  Mean number of days to relapse: 188.1 days
[2]; 64 mg throughout, OL period
  Patients who experienced relapse (%): 8%
  Patients who experienced relapse (number): 12
[2]; 64 mg, DB period
  Days to relapse (Kaplan-Meier estimates), Mean: 81.4 days
[2]; [5]
  Patients who experienced relapse (%): 7%
  Patients who experienced relapse (number): 35
[2]; Roluperidone Total, DB period
  Days to relapse (Kaplan-Meier estimates), Mean: 128.9 days
  Days to relapse (Kaplan-Meier estimates), Median: 137.0 days
[2]; placebo to 32 mg, OL period
  Patients who experienced relapse (%): 11%
  Patients who experienced relapse (number): 9
[2]; placebo to 64 mg, OL period
  Patients who experienced relapse (%): 1%
  Patients who experienced relapse (number): 1
[2]; total placebo to Roluperidone group, OL period
  Mean number of days to relapse: 256.3 days
[3]; 32 mg (N = 170), DB period
  Patients who experienced relapse (%): 11%
  Patients who experienced relapse (number): 18
[3]; 32 mg throughout the study (N = 107), OL period
  Patients who experienced relapse (number): 9
[3]; 32 mg throughout the study, OL period
  Days to relapse (Kaplan-Meier estimates), Mean: 232.4 days
[3]; 32 mg, DB period
  Days to relapse (Kaplan-Meier estimates), Mean: 124.9 days
  Days to relapse (Kaplan-Meier estimates), Median: 137.0 days
[3]; 64 mg (N = 171), DB period
  Patients who experienced relapse (%): 5%
  Patients who experienced relapse (number): 9
[3]; 64 mg throughout the study (N = 104), OL period
  Patients who experienced relapse (number): 10
[3]; 64 mg throughout the study, OL period
  Days to relapse (Kaplan-Meier estimates), Mean: 186.7 days
[3]; 64 mg, DB period
  Days to relapse (Kaplan-Meier estimates), Mean: 82.1 days
[3]; Overall (N = 333), OL period
  Patients who experienced relapse (%): (8%)
  Patients who experienced relapse (number): 25
[3]; Overall, OL period
  Days to relapse (Kaplan-Meier estimates), Mean: 254.1 days
[3]; [6]
  Patients who experienced relapse (%): (10%)
  Patients who experienced relapse (number): 6
[3]; Placebo in DB to 32 mg in OL, OL period
  Days to relapse (Kaplan-Meier estimates), Mean: 253.6 days
[3]; Placebo in DB to 64 mg in OL (N = 63), OL period
  Patients who experienced relapse (number): 0
[3]; Placebo in DB to Roluperidone in OL, Total (N = 122), OL period
  Patients who experienced relapse (number): 6
[3]; Placebo in DB to Roluperidone in OL, Total, OL period
  Days to relapse (Kaplan-Meier estimates), Mean: 260.4 days
[3]; [7]
  Patients who experienced relapse (%): 8%
  Patients who experienced relapse (number): 27
[3]; [8]
  Days to relapse (Kaplan-Meier estimates), Mean: 127.8 days
  Days to relapse (Kaplan-Meier estimates), Median: 137.0 days
[3]; [9]
  Patients who experienced relapse (%): (9%)
  Patients who experienced relapse (number): 19
[3]; Roluperidone throughout, Total, OL period
  Days to relapse (Kaplan-Meier estimates), Mean: 230.9 days
[3]; Study #2 (n = 513), all subjects, Double-blind (12-weeks)
  Relapse by study phase: 6.8%
[3]; Study #2 (n = 513), Overall (over 52 weeks)
  Relapse overall (discontinued because of positive symptoms worsening): 11.7%
[3]; Study #2, Open-label (over 40 weeks)
  Relapse by study phase: 7.5%
[4]; 32 mg QD
  Change from Baseline LS Mean: Clinical Global Impression of Severity: −0.4
  Clinical Global Impression of Improvement, LS Mean (observed data, MMRM): 3.4
  Effect Size (Cohen's d) vs Placebo: Clinical Global Impression of Improvement: −0.12
  Effect Size (Cohen's d) vs Placebo: Clinical Global Impression of Severity: 0.12
[4]; 64 mg QD
  Change from Baseline LS Mean: Clinical Global Impression of Severity: −0.5
  Clinical Global Impression of Improvement, LS Mean (observed data, MMRM): 3.3
  Effect Size (Cohen's d) vs Placebo: Clinical Global Impression of Improvement: 0.02
  Effect Size (Cohen's d) vs Placebo: Clinical Global Impression of Severity: 0.24
